Assay results reported in patent US12642270B2, “Substituted thiophene carboxamides, thiophene carboxylic acids and derivatives thereof” (Bayer Aktiengesellschaft, priority 2019, dated 2026).

Assay: Log P by HPLC on reversed phase columns (EEC directive 79/831 Annex V.A8)
Assay type: physicochemical
Conditions: method [a]
How it was run: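 Values come from retention times calibrated against alkan-2-ones (3–16 carbons) by linear interpolation, using reversed-phase LC-UV per EEC directive 79/831 Annex V.A8. Acetonitrile gradient 10–95% with 0.1% formic acid [a], 0.001 M ammonium acetate [b] or 0.1% phosphoric acid [c]; several values within one method separated by "+".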

SMILES | LogP
COC(=O)C(C)(C)NC(=O)c1sc(Br)c(Br)c1F [1.0540] | 3.34^[a]
COC(=O)C1(NC(=O)c2sc(Br)c(Br)c2F)COC1 [1.0541] | 2.49^[a]
CCNC(=O)SC[C@H](NC(=O)c1sc(Br)c(Br)c1F)C(=O)OC [1.0543] | 3.10^[a]
CCOC(=O)C(CSC(C)=O)NC(=O)c1sc(Cl)c(Cl)c1Br (stereo not drawn) [1.0547] | 3.46^[a]
COC(=O)C[C@H](NC(=O)c1sc(Cl)c(Cl)c1Br)C(=O)OC [1.0548] | 3.33^[a]
CCOC(=O)C[C@H](NC(=O)c1sc(Cl)c(Cl)c1Br)C(=O)OCC [1.0551] | 4.17^[a]
CCOC(=O)C(CSC(C)=O)NC(=O)c1sc(Br)c(Br)c1F (stereo not drawn) [1.0554] | 3.18^[a]
CCOC(=O)C(CSC)NC(=O)c1sc(Br)c(Br)c1F (stereo not drawn) [1.0556] | 3.87^[a]
COC(=O)CC[C@H](NC(=O)c1sc(Br)c(Br)c1F)C(=O)OC [1.0557] | 3.07^[a]
CCOC(=O)C[C@H](NC(=O)c1sc(Br)c(Br)c1F)C(=O)OCC [1.0558] | 3.76^[a]
CCOC(=O)CC[C@H](NC(=O)c1sc(Br)c(Br)c1F)C(=O)OCC [1.0559] | 3.84^[a]
COC(=O)[C@H](CC(=O)OC(C)(C)C)NC(=O)c1sc(Br)c(Br)c1F [1.0560] | 4.12^[a]
CCOC(=O)C(CSC(C)=O)NC(=O)c1sc(Br)c(Br)c1Cl (stereo not drawn) [1.0561] | 3.44^[a]
CCOC(=O)CC[C@H](NC(=O)c1sc(Cl)c(Cl)c1Br)C(=O)OCC [1.0562] | 4.25^[a]
N#CNC(=O)CNC(=O)c1sc(Br)c(Br)c1F [1.0563] | 2.17^[a]
COC(=O)CNC(=O)c1sc(C)c(Cl)c1Cl [1.0564] | 2.45^[a]
CCCOC(=O)C1(NC(=O)c2sc(C#N)c(Br)c2Cl)CC1 [1.0567] | 3.18^[a]
N#CCNC(=O)c1sc(C#N)c(Br)c1Cl [1.0569] | 2.08^[a]
CCOC(=O)CNC(=O)c1sc(C#N)c(Cl)c1Cl [1.0570] | 2.60^[a]

SMILES | LogP
COC(=O)CNC(=O)c1sc(C#N)c(Cl)c1Cl [1.0571] | 2.20^[a]
COC(=O)C1(NC(=O)c2sc(C#N)c(Cl)c2Cl)CC1 [1.0573] | 2.40^[a]
COC(=O)C(C)(C)NC(=O)c1sc(C#N)c(Cl)c1Cl [1.0574] | 2.90^[a]
CCOC(=O)C(Cc1ccccc1)NC(=O)c1sc(C#N)c(Cl)c1Cl (stereo not drawn) [1.0577] | 4.11^[a]
COC(=O)C1(NC(=O)c2sc(C#N)c(Cl)c2Cl)CCC1 [1.0578] | 2.94^[a]
CCOC(=O)C1(NC(=O)c2sc(C#N)c(Cl)c2Cl)CCC1 [1.0579] | 3.35^[a]
CCOC(=O)CNC(=O)c1sc(Cl)c(Br)c1C#N [1.0583] | 2.56^[a]
CCOC(=O)C1(NC(=O)c2sc(Cl)c(Br)c2C#N)CC1 [1.0585] | 2.70^[a]
COC(=O)C(C)(C)NC(=O)c1sc(C#N)c(Br)c1Cl [1.0589] | 2.93^[a]
Cc1c(C(=O)NC2(C(=O)OC3CCC3)CC2)sc(Cl)c1Br [1.0590] | 3.81^[a]
O=C(NC1(C(=O)OC2CCC2)CC1)c1sc(Br)c(Cl)c1F [1.0592] | 3.72^[a]
O=C(NC1(C(=O)OC2CCC2)CC1)c1sc(Cl)c(Br)c1Br [1.0594] | 4.20^[a]
COC(=O)C1(NC(=O)c2sc(Cl)c(Br)c2Cl)CC1 [1.0595] | 3.11^[a]
CCCOC(=O)C1(NC(=O)c2sc(Cl)c(Br)c2Cl)CC1 [1.0596] | 3.98^[a]
CCCOC(=O)C1(NC(=O)c2cc(Cl)c(Br)s2)CC1 [1.0598] | 3.28^[a]
O=C(NC1(C(=O)OC2CCC2)CC1)c1cc(Cl)c(Br)s1 [1.0599] | 3.43^[a]
COC(=O)C1(NC(=O)c2sc(Cl)c(Br)c2C#N)CC1 [1.0600] | 2.36^[a]
CCCOC(=O)C1(NC(=O)c2cc(Br)c(Cl)s2)CC1 [1.0601] | 3.43^[a]
COC(=O)C1(NC(=O)c2sc(C#N)c(Br)c2Cl)CC1 [1.0602] | 2.44^[a]

SMILES | LogP
CCOC(=O)CNC(=O)c1sc(C#N)c(Br)c1Cl [1.0604] | 2.63^[a]
O=C(NC1(C(=O)OC2CCC2)CC1)c1cc(Br)c(Cl)s1 [1.0607] | 3.46^[a]
COC(=O)C(NC(=O)c1sc(Cl)c(Br)c1C#N)C1CC1 (stereo not drawn) [1.0610] | 2.93^[a]
COC(=O)C1(NC(=O)c2sc(Cl)c(Cl)c2Br)CC(C)(C)C1 [1.0612] | 4.50^[a]
COC(=O)C1(NC(=O)c2sc(Cl)c(Cl)c2Br)CCC1 [1.0613] | 3.67^[a]
CC(C)OC(=O)C1(NC(=O)c2sc(Br)c(Br)c2Cl)CCC1 [1.0616] | 4.71^[a]
O=C(NC(C(=O)OCc1ccccc1)C1CC1)c1sc(Cl)c(Cl)c1Br (stereo not drawn) [1.0617] | 5.10^[a]
O=C(NC(C(=O)OCc1ccccc1)C1CC1)c1sc(Br)c(Br)c1F (stereo not drawn) [1.0619] | 4.63^[a]
COC(=O)C1(NC(=O)c2sc(Br)c(Br)c2F)CC(C)(C)C1 [1.0621] | 4.12^[a]
COC(=O)C1(NC(=O)c2sc(Br)c(Br)c2F)CC(F)(F)C1 [1.0622] | 3.37^[a]
CC(C)(C)OC(=O)C1(NC(=O)c2sc(Br)c(Br)c2F)CC(F)(F)C1 [1.0623] | 4.46^[a]
COC(=O)C1(NC(=O)c2sc(Br)c(Br)c2Cl)CC(F)(F)C1 [1.0624] | 3.69^[a]
CCCOC(=O)C1(NC(=O)c2sc(Cl)c(Br)c2C)CC1 [1.0625] | 3.62^[a]
NC(=O)CNC(=O)c1sc(Cl)c(Cl)c1Br [1.0626] | 1.98^[a]
COC(=O)C1(NC(=O)c2sc(Cl)c(Br)c2C#N)CCC1 [1.0629] | 2.82^[a]
CCOC(=O)C1(NC(=O)c2sc(Cl)c(Br)c2C#N)CCC1 [1.0630] | 3.20^[a]
CCCOC(=O)C1(NC(=O)c2sc(Cl)c(Br)c2C#N)CC1 [1.0631] | 3.06^[a]
N#CCNC(=O)c1sc(Cl)c(Br)c1C#N [1.0633] | 2.07^[a]

Now from value to molecule:

LogP | SMILES
3.74^[a] | COC(=O)CNC(=S)c1sc(Br)c(Br)c1F [1.0538]
2.09^[a] | COC(=O)C1(NC(=O)c2sc(Br)c(Br)c2F)CC1 [1.0539]
2.54^[a] | CCOC(=O)CN(O)C(=O)c1sc(Br)c(Br)c1F [1.0542]
3.05^[a] | COC(=O)C(C1CC1)N(O)C(=O)c1sc(Cl)c(Cl)c1Br (stereo not drawn) [1.0544]
4.15^[a] | CCOC(=O)C[C@H](NC(=O)c1sc(Br)c(Br)c1Cl)C(=O)OCC [1.0545]
3.33^[a] | COC(=O)C[C@H](NC(=O)c1sc(Br)c(Br)c1Cl)C(=O)OC [1.0546]
3.41^[a] | COC(=O)CC[C@H](NC(=O)c1sc(Cl)c(Cl)c1Br)C(=O)OC [1.0549]
4.32^[a] | CCOC(=O)C(CSC)NC(=O)c1sc(Br)c(Br)c1Cl (stereo not drawn) [1.0550]
4.59^[a] | COC(=O)[C@H](CC(=O)OC(C)(C)C)NC(=O)c1sc(Cl)c(Cl)c1Br [1.0552]
3.13^[a] | COC(=O)C(CCSC(C)=O)NC(=O)c1sc(Br)c(Br)c1F (stereo not drawn) [1.0553]
2.99^[a] | COC(=O)C[C@H](NC(=O)c1sc(Br)c(Br)c1F)C(=O)OC [1.0555]
2.98^[a] | COC(=O)C1(NC(=O)c2sc(C#N)c(Br)c2Cl)CCC1 [1.0565]
3.38^[a] | CCOC(=O)C1(NC(=O)c2sc(C#N)c(Br)c2Cl)CCC1 [1.0566]
3.32^[a] | N#Cc1sc(C(=O)NC2(C(=O)OC3CCC3)CC2)c(Cl)c1Br [1.0568]
2.76^[a] | CCOC(=O)C1(NC(=O)c2sc(C#N)c(Cl)c2Cl)CC1 [1.0572]
3.89^[a] | CCOC(=O)C(NC(=O)c1sc(C#N)c(Cl)c1Cl)C(C)C (stereo not drawn) [1.0575]
3.05^[a] | COC(=O)C(NC(=O)c1sc(C#N)c(Cl)c1Cl)C1CC1 (stereo not drawn) [1.0576]
3.15^[a] | CCCOC(=O)C1(NC(=O)c2sc(C#N)c(Cl)c2Cl)CC1 [1.0580]
3.30^[a] | N#Cc1sc(C(=O)NC2(C(=O)OC3CCC3)CC2)c(Cl)c1Cl [1.0581]
2.04^[a] | N#CCNC(=O)c1sc(C#N)c(Cl)c1Cl [1.0582]

LogP | SMILES
2.20^[a] | COC(=O)CNC(=O)c1sc(Cl)c(Br)c1C#N [1.0584]
4.13^[a] | CCOC(=O)C(Cc1ccccc1)NC(=O)c1sc(C#N)c(Br)c1Cl (stereo not drawn) [1.0586]
3.08^[a] | COC(=O)C(NC(=O)c1sc(C#N)c(Br)c1Cl)C1CC1 (stereo not drawn) [1.0587]
3.92^[a] | CCOC(=O)C(NC(=O)c1sc(C#N)c(Br)c1Cl)C(C)C (stereo not drawn) [1.0588]
3.56^[a] | CCCOC(=O)C1(NC(=O)c2sc(Br)c(Cl)c2F)CC1 [1.0591]
3.98^[a] | CCCOC(=O)C1(NC(=O)c2sc(Cl)c(Br)c2Br)CC1 [1.0593]
4.15^[a] | O=C(NC1(C(=O)OC2CCC2)CC1)c1sc(Cl)c(Br)c1Cl [1.0597]
2.70^[a] | COC(=O)C1(NC(=O)c2sc(Cl)c(Br)c2F)CC1 [1.0603]
2.24^[a] | COC(=O)CNC(=O)c1sc(C#N)c(Br)c1Cl [1.0605]
2.79^[a] | CCOC(=O)C1(NC(=O)c2sc(C#N)c(Br)c2Cl)CC1 [1.0606]
2.77^[a] | COC(=O)C(C)(C)NC(=O)c1sc(Cl)c(Br)c1C#N [1.0608]
3.81^[a] | CCOC(=O)C(NC(=O)c1sc(Cl)c(Br)c1C#N)C(C)C (stereo not drawn) [1.0609]
4.69^[a] | CC(C)OC(=O)C1(NC(=O)c2sc(Cl)c(Cl)c2Br)CCC1 [1.0611]
4.83^[a] | CC(C)(C)OC(=O)C1(NC(=O)c2sc(Cl)c(Cl)c2Br)CC(F)(F)C1 [1.0614]
5.07^[a] | O=C(NC(C(=O)OCc1ccccc1)C1CC1)c1sc(Br)c(Br)c1Cl (stereo not drawn) [1.0615]
4.52^[a] | COC(=O)C1(NC(=O)c2sc(Br)c(Br)c2Cl)CC(C)(C)C1 [1.0618]
4.23^[a] | CC(C)OC(=O)C1(NC(=O)c2sc(Br)c(Br)c2F)CCC1 [1.0620]
3.22^[a] | COC(=O)C(C)(C)NC(=O)c1sc(Br)c(C(F)F)c1Br [1.0627]
4.00^[a] | CCOC(=O)C(Cc1ccccc1)NC(=O)c1sc(Cl)c(Br)c1C#N (stereo not drawn) [1.0628]
3.21^[a] | N#Cc1c(C(=O)NC2(C(=O)OC3CCC3)CC2)sc(Cl)c1Br [1.0632]
